The values below come from publication PMC6678253, “The 1,3,5-Triazine Derivatives as Innovative Chemical Family of 5-HT6 Serotonin Receptor Agents with Therapeutic Perspectives for Cognitive Impairment” (International Journal of Molecular Sciences, 2019).

Where two headings read alike, the source gives them in different places.

Data set [1] deals with hepatoma HepG2 cell line. The data set is described as follows: ATP level in HepG2 (CellTiter-Glo). Conditions: 2 h exposure, 10 µM. (Cellular ATP, detected with luciferase, serves as a proxy for viable cell number.)
Description: (§2) The cells’ viability was determined by CellTiter 96® AQueous Non-Radioactive Cell Proliferation Assay (MTS), which was purchased from Promega (Madison, WI, USA). The absorbance was measured using a microplate reader EnSpire (PerkinElmer, Waltham, MA USA) at 490 nm. All compounds were tested in quadruplicate. For ATP-level measurement the cells were growth in similar way as in cytotoxicity assays. The CellTiter-Glo® Luminescent Cell Viability Assay and protocol was provided by Promega (Madison, WI, USA). The luminescence was measured after 2 hours-long cells’ exposition on tested compounds and the positive control CCCP by a microplate reader EnSpire (PerkinElmer, Waltham, MA USA) at luminescence mode. All compounds were tested in triplicate.
The next data set concerns the target T1, 5-HT2A (Homo sapiens, UniProt P28223).
T1 construct: expressed in transfected cells; host or cells: HEK-293
Nature of the data set: Radioligand binding assay, 5-HT2A ([3H]-ketanserin displacement). Conditions: human receptor stably expressed in HEK-293.

Data set [2] can be described thus: Parallel artificial membrane permeability assay (PAMPA). The format is in vitro ADME. As to conditions: PBS pH 7.4, 5 h, room temperature, breakpoint for permeable compounds Pe ≥ 1.5 × 10^−6 cm/s, read-out: Pe (permeability coefficient) ± SD.
In another data set the target is 5-HT6. Also on record: method as in PMID 28441580, PMID 30530073, PMID 31229876. As to conditions: human receptor stably expressed in HEK-293; determined previously; read-out: Ki 5-HT6 [3H]-LSD; cited from earlier work.
In data set [3] the target is T2, D2L (Homo sapiens, UniProt P14416).
T2 construct: expressed in transfected cells; host or cells: HEK-293
Set-up: method as in PMID 28441580, PMID 30530073, PMID 31229876. As to conditions: human receptor stably expressed in HEK-293; determined previously; read-out: Ki D2L [3H]-Raclopride; cited from earlier work.

The target of data set [4] is T3, 5-HT1A (Homo sapiens, UniProt P08908).
T3 construct: expressed in transfected cells; host or cells: HEK-293
T3 sequence (P08908 1-422): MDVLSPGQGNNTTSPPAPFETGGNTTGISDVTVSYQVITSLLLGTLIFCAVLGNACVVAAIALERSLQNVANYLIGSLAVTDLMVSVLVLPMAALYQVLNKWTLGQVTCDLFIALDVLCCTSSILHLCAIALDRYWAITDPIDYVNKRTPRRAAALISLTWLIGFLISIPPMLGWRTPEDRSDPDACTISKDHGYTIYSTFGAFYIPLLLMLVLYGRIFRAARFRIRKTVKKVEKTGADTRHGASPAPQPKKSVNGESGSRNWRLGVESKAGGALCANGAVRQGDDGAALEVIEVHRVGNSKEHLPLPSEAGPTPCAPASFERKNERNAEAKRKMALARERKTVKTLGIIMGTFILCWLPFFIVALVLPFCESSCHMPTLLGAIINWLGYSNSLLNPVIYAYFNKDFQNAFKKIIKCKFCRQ
Also on record: method as in PMID 28441580, PMID 30530073, PMID 31229876. As to conditions: human receptor stably expressed in HEK-293; determined previously; read-out: Ki 5-HT1A [3H]-8-OH-DPAT; cited from earlier work.

Data set [5] addresses T4, 5-HT7 (Homo sapiens, UniProt P34969).
T4 construct: expressed in transfected cells; host or cells: HEK-293
Also on record: method as in PMID 28441580, PMID 30530073, PMID 31229876. Conditions: human receptor stably expressed in HEK-293; determined previously; read-out: Ki 5-HT7 [3H]-5-CT; cited from earlier work.

The target of another data set is P-glycoprotein (Pgp) (Homo sapiens, UniProt P08183). The data set is described as follows: Luminescent Pgp-Glo Assay System. As to conditions: 100 μM, 40 min, 37 °C; for Pgp basal activity: > 100% = substrate, increase statistically insignificant.
The subject of data set [6] is human embryonic kidney HEK-293 cell line. Nature of the data set: Cytotoxicity, MTS assay in HEK-293. A general note: Formazan colour is commonly taken as a measure of viable cells.
Description: as §2
Data set [7] in a line: Metabolic stability in human liver microsomes (HLMs). As to conditions: for Clint: HLMs 1 mg/mL, 50 µM compound, Clint ≤ 8.6 = low clearance; for half-life at 50 µM: human, human liver microsomes.
Description: The t1/2 values and intrinsic clearances (Clint) were calculated using IS by protocols and formulas proposed by Obach [30].
For the next data set, the target named is T5, CYP2D6 (Homo sapiens, UniProt P10635).
T5 construct: purchased Promega (Madison, WI, USA)
The data set is described as follows: CYP2D6 P450-Glo assay. As to conditions: for CYP2D6 activity (inhibition): at 25 µM. The format is in vitro ADME. The source says:
(§1) The potential risk of drug-drug interactions (DDI) were examined by luminescence-based CYP3A4 and CYP2D6 P450-Glo™ assays (Promega®). These two CYP isoforms are responsible for metabolism of approximately half of all marketed drugs, and an influence on their activity may be a source of DDI danger. […] The luminescent CYP3A4 P450-Glo™ and CYP2D6 P450-Glo™ Promega® (Madison, WI, USA) were used for investigation of potential drug-drug interactions. All assays and protocols were described before.

The nature of data set [8]: Vogel conflict drinking test. As to conditions: rats.
Description: It was consisted of polycarbonate cages (dimensions 26.5 cm × 15 cm × 42 cm), equipped with a grid floor made from stainless steel bars and drinking bottles containing tap water. Experimental chambers were connected to PC software by control chassis and electric shocks’ generator. On the first day of the experiment, the rats were adapted to the test chambers and drink water from the bottle spout for 10 min. Afterwards, the rats were returned to their home cages and were given 30 min free access to water followed by a 24-h water deprivation period. The adaptation session and water deprivation protocols were repeated on the second day of the experiment. On the third day the rats were placed again in the test chambers 60 min after investigated and reference compounds administration and were given free access to the drinking tube. Recording data started immediately after the first lick and rats were punished with an electric shock (0.5 mA, lasting 1 s) delivered to the metal drinking tube every 20 licks. The number of licks and the number of shocks received during a 5-min experimental session were recorded automatically.
In data set [9] the target is T2, D2L. The data set is described as follows: Radioligand binding assay, D2L ([3H]-raclopride displacement). Conditions: human receptor stably expressed in HEK-293.
Data set [10] has as its target T3, 5-HT1A. Nature of the data set: Radioligand binding assay, 5-HT1A ([3H]-8-OH-DPAT displacement). As to conditions: human receptor stably expressed in HEK-293.
The target of data set [11] is T4, 5-HT7. Nature of the data set: Radioligand binding assay, 5-HT7 ([3H]-5-CT displacement). Conditions: human receptor stably expressed in HEK-293.
In the next data set the target is T6, CYP3A4 (Homo sapiens, UniProt P08684).
T6 construct: purchased Promega (Madison, WI, USA)
The data set is described as follows: CYP3A4 P450-Glo assay. Conditions: 0.01-25 μM; effect of 4 at 10 and 25 µM. The format is in vitro ADME.
Excerpt: as §1

Data set [12] has as its system hepatoma HepG2 cell line. Nature of the data set: Hepatotoxicity, MTS assay in HepG2. As to conditions: 72 h; 100 µM.
Description: as §2
A short description of data set [13]: Novel object recognition test (NORT), scopolamine-induced memory impairment. It counts as in vivo, rat. As to conditions: rats, 1 mg/kg; ANOVA NS. The text has this: Taking into account the ability of various 5-HT6R antagonists to improve cognitive deficits, the NORT assay was used to study the influence of the investigated compounds on visual episodic memory. This test is based on the spontaneous exploration of novel and familiar objects. The administration of scopolamine reduces an ability to discriminate a novel object from a familiar one, and any compounds that have a protective effect against this deficit are regarded as potentially useful for treating cognitive deficits that are characteristic for Alzheimer’s disease and other dementia connected disorders.
Five days before the experiment, the rats were transferred to the laboratory, labeled and, thereafter, left to acclimate to the new environment. The animals were handling every five days before experiments to minimize the stress reaction. The protocol was adapted from the original work. The test session comprising of two trials separated by an inter-trial interval (ITI) of 1 h was carried out on the next day. […]
The animals explored the objects by looking, licking, sniffing or touching the object but not when leaning against, standing or sitting on the object. […] Exploration time of the objects was measured by blind experimenter. Based on exploration time (E) of two objects during T2, discrimination index (DI) was calculated according to the formula: DI = (EB − EA)/(EA + […]). […]

[14] abbreviates: 72 h, only at 100 µM, 1 p < 0.001, 2 p < 0.05.

T1 sequence (P28223 whole entry): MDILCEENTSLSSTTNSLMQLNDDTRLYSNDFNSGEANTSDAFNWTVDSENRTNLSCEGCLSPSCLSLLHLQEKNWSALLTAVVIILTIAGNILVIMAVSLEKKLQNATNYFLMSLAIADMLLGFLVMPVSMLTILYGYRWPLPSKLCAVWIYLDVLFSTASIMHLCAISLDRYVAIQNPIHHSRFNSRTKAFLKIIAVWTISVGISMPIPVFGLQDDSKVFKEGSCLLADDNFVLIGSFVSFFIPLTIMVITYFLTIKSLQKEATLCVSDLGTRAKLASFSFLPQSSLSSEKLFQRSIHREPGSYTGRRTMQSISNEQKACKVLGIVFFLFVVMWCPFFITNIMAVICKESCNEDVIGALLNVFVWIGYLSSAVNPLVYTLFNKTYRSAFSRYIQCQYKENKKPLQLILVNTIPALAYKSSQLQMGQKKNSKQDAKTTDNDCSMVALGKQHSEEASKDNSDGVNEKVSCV
P-glycoprotein (Pgp), sequence (P08183 whole entry): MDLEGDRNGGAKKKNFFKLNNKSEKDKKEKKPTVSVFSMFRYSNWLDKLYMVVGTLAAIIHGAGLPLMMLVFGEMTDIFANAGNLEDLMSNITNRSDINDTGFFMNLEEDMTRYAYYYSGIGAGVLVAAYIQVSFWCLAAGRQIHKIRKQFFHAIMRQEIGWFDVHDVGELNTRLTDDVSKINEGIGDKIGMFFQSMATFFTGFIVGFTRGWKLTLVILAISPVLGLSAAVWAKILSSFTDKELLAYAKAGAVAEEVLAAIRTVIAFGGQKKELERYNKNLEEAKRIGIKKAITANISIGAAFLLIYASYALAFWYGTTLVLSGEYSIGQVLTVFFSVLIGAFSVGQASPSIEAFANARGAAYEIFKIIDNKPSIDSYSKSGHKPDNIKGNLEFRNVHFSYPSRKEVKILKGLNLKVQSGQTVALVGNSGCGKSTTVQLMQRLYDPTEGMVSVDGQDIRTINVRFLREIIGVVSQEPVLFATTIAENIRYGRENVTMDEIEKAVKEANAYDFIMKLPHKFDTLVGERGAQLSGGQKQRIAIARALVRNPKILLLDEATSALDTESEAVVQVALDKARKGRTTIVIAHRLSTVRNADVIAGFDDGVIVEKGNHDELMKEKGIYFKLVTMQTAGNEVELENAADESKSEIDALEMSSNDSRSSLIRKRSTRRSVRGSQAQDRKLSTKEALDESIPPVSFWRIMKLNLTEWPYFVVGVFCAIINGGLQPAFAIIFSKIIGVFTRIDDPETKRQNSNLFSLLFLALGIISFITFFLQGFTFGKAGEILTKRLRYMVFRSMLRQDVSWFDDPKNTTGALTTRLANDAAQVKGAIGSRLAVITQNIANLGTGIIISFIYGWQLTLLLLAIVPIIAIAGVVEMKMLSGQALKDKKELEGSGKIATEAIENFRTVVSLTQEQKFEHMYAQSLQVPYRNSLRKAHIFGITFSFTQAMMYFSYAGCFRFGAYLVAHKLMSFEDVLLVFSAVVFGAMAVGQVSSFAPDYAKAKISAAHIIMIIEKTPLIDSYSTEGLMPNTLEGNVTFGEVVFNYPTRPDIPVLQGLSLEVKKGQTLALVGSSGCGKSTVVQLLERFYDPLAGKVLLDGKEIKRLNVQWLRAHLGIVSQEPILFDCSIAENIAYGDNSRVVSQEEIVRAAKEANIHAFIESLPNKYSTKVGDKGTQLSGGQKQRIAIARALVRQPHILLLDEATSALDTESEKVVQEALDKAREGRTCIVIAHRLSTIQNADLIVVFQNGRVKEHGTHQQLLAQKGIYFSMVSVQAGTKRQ
T2 sequence (P14416 whole entry): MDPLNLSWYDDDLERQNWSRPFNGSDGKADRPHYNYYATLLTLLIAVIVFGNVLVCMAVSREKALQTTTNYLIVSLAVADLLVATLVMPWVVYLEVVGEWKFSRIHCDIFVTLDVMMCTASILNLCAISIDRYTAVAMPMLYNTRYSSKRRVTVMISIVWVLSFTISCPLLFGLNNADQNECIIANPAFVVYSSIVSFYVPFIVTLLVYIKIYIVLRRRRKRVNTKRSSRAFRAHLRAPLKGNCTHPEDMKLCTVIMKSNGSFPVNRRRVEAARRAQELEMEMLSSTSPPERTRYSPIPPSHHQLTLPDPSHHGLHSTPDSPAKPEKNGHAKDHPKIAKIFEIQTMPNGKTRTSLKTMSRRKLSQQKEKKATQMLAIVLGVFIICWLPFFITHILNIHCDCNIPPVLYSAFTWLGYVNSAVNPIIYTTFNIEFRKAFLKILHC
T5 sequence (P10635 whole entry): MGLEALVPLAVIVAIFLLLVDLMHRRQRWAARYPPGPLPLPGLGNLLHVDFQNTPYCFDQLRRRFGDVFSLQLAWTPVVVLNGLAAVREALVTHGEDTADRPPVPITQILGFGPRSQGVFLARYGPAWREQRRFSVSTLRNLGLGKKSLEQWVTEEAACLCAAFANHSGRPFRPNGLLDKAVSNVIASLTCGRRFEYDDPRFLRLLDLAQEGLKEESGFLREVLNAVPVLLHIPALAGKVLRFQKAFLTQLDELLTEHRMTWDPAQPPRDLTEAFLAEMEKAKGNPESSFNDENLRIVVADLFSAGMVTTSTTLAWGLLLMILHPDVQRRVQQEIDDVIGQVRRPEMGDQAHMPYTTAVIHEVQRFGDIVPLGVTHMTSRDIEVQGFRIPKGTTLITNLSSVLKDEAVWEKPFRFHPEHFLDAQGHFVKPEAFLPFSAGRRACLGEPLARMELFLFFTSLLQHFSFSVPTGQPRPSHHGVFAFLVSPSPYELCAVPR
T4 sequence (P34969 1-432): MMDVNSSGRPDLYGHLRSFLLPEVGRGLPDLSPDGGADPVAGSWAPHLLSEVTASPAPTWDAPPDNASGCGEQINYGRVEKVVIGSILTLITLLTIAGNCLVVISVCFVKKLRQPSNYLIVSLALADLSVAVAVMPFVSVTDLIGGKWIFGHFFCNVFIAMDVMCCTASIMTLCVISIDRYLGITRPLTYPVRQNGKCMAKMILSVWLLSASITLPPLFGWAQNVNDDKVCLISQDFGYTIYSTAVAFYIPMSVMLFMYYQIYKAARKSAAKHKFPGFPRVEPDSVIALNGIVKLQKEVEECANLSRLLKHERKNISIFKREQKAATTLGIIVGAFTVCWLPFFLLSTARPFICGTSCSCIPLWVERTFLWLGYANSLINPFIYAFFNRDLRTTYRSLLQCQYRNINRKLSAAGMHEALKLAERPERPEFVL
T6 sequence (P08684 whole entry): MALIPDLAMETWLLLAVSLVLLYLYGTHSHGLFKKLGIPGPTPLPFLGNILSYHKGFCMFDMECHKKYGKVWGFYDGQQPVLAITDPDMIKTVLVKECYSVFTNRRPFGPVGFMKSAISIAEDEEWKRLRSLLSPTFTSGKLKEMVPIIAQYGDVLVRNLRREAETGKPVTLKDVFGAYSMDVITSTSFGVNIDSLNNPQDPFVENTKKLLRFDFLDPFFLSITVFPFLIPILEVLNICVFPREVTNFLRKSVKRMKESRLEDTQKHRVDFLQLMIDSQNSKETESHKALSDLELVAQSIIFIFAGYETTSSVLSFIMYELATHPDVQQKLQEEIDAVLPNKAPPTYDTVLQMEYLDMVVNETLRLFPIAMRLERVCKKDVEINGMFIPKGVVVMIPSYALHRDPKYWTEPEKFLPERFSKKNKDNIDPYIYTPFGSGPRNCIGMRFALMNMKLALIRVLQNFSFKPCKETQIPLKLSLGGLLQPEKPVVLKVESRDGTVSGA
Description for P-glycoprotein (Pgp): Moreover, the luminescence Pgp-Glo™ Assay was used in order to determine their influence on P-glycoprotein (Pgp) activity, the main efflux pump in the transport across blood–brain barrier (BBB) and the intestinal epithelium.
The luminescent Pgp-Glo™ Assay System used for determination of 5HT6R ligands’ influence on P-glycoprotein activity was purchased from Promega (Madison, WI, USA). […] The luminescence signal was measured by microplate reader EnSpire PerkinElmer (Waltham, MA, USA).

In the case of `N#CC(C#N)=NNc1cccc(Cl)c1` [CCCP, carbonyl cyanide 3-chlorophenylhydrazone], the “ATP level in HepG2” value in the data set on hepatoma HepG2 cell line [1] is recorded as ~ 33 % of control.

As a reminder, the Ki is the dissociation constant of the complex between target and ligand, obtained from inhibition or displacement. One may read the half-life as the time in which the quantity being followed falls by half. Consider `CN1CCN(c2nc(N)nc(Cc3cccc(Cl)c3)n2)CC1` [Compound 1], for which the Ki was 0.272 µM on 5-HT2A; 0.028 µM at 5-HT6; 0.838 µM on D2L [3]; 4.95 µM on 5-HT1A [4]; 8.71 µM at 5-HT7 [5]. Moreover, the Papp at 5 h, 200 µM in data set [2] was 23.6 ± 2.14 ×10⁻⁶ cm/s. For the same compound, the Pgp basal activity on P-glycoprotein (Pgp) was ~ 135%. Also, in [6] (setting [14]), the HEK-293 cells viability result is listed as “significant effect”. In [7], this compound registered a Clint of 7.56 mL/min/kg. Moreover, in data set [7], the half-life at 50 µM was found to be 1.38 h.

Turning to `Cc1cccc(Cc2nc(N)nc(N3CCN(C)CC3)n2)c1` [Compound 2], the Ki on 5-HT2A was 0.329 µM; on D2L [3] it was 1.19 µM; on 5-HT1A [4], 10.2 µM; at 5-HT7 [5], 16.2 µM. Further, in data set [2], the Papp at 5 h, 200 µM stood at 19.9 ± 2.68 ×10⁻⁶ cm/s. Moreover, on CYP2D6 (at 10 and 25 µM), the “CYP2D6 activity (induction)” value is ~ 148 % of the control activity. The “effect on Pgp basal activity” value on P-glycoprotein (Pgp) (p < 0.001) is “inhibited significantly”. Further, the HEK-293 cells viability entry in [6] (setting [14]) is on record as “significant effect”. This compound came in with a Clint in [7] of 3.96 mL/min/kg. The same compound showed a half-life at 50 µM in [7] of 2.63 h.

As for `CN1CCN(c2nc(N)nc(Cc3c[nH]c4ccccc34)n2)CC1` [Compound 3, 4-((1H-indol-3-yl)methyl)-6-(4-methylpiperazin-1-yl)-1,3,5-triazin-2-amine], affinity on 5-HT2A was put at a Ki of 1.76 µM. In addition, in data set [2], the Papp at 5 h, 200 µM worked out at 17.9 ± 5.76 ×10⁻⁶ cm/s. Also, the “CYP2D6 activity (inhibition)” value on CYP2D6 is reported as ~ 75 % of the control activity. In addition, the Ki on 5-HT6 was 0.022 µM. Besides, the “increase of the number of shocks” value in data set [8] (1 mg/kg i.p., p < 0.05) is given as “about 82%”. In addition, the “anxiolytic-like activity in Vogel conflict drinking test” value (“anxiolytic-like activity” for short) in data set [8] (i.p. 60 min before test) is listed as “anxiolytic-like activity was shown”. Also, the Pgp basal activity at P-glycoprotein (Pgp) was ~ 135%. In [7], this compound had a Clint of 2.34 mL/min/kg and a half-life at 50 µM of 4.45 h.

With `Cc1ccc(C(C)C)c(OCc2nc(N)nc(N3CCN(C)CC3)n2)c1` [Compound 4, 4-((2-isopropyl-5-methylphenoxy)methyl)-6-(4-methylpiperazin-1-yl)-1,3,5-triazin-2-amine], the Ki is 1.09 µM on D2L [9]; 12.5 µM on 5-HT1A [10]; 0.43 µM at 5-HT2A; 12 µM at 5-HT7 [11]; 0.011 µM at 5-HT6. The Papp at 5 h, 200 µM in data set [2] was determined as 12.3 ± 1.98 ×10⁻⁶ cm/s. The “influence on CYP3A4 activity” value at CYP3A4 is listed as “slight induction effect”. Further, the “CYP2D6 activity (inhibition)” value at CYP2D6 is recorded as ~ 75 % of the control activity. In addition, in data set [8] (0.3 mg/kg i.p., p < 0.0001), the “increase of the number of licks” value is given as “about 76%”. Also, the “anxiolytic-like activity” value in data set [8] (i.p. 60 min before test) is listed as “anxiolytic-like activity was shown”. In addition, the Pgp basal activity at P-glycoprotein (Pgp) is ~ 135%. For the same compound, the “lowest toxic dose vs 5-HT6R Ki” value in data set [6] (10 μM vs Ki = 11 nM) is recorded as ~ 1000 fold. The HEK-293 cells viability result in [6] (72 h, at 10 and 100 µM, p < 0.001) is recorded as “statistically significant decrease in cells viability”. The compound further showed a lowest toxic dose in data set [6] (cytotoxicity, 72 h) of 10 µM. Besides, the “HepG2 viability (hepatotoxic effect)” value in the data set on hepatoma HepG2 cell line [12] is “hepatotoxic effect”. Besides, the Clint in [7] came to 6.30 mL/min/kg. Moreover, the half-life at 50 µM in data set [7] was determined as 1.65 h.

For `COc1ccc(S(=O)(=O)Nc2cc(Cl)cc(Cl)c2OC)cc1N1CCNCC1` [SB-399885, N-[3,5-dichloro-2-(methoxy)-phenyl]-4-(methoxy)-1-(piperazinyl)benzenesulfonamide, reference compound], the “anxiolytic-like activity” value is reported as “exerted anxiolytic-like activity” in data set [8] (1 and 3 mg/kg i.p.); “anxiolytic-like activity was shown” in data set [8] (i.p. 60 min before test).

Consider `CCN(C)C(=O)Oc1cccc([C@H](C)N(C)C)c1` [rivastigmine], for which the “effect on scopolamine induced learning deficits in NORT” value in data set [13] is “similar, but lower pro-cognitive effects”.
